In US20230203095A1, “BIOLOGICAL PEPTIDE FOR TREATING LUNG DISEASES AND APPLICATION THEREOF” (SHANGHAI INSTITUTE OF PHARMACEUTICAL INDUSTRY CO., LTD., priority 2019, published 2023):
“And” between values parts separate entries of the source, which are not always exact repeats. Equal values may be shown once. Read-outs that look alike come from different tables or passages of the source. One block for each compound: values may come before it. Peptide text beside a SMILES is read from it. * marks the point of attachment. X1 = CC(=O)N[C@H]1C(*)O[C@H](CO)[C@@H](O)[C@@H]1O

Legend:
[1] = system: COPD model rats; assay: Lung function (200 ms pulmonary ventilation) in smoking + LPS COPD model rats; format: in vivo, SD rats; settings: 5 mg/kg body weight/day, aerosol, once a day for 4 weeks
[2] = system: serum IgE; assay: Serum IgE level in OVA-induced allergic asthma model mice; format: in vivo, BALB/c mice
Protocol: (§1) The first batch: mice were divided into groups, 10 mice in each group, namely: blank control group (normal saline), model group (OVA, 20 ug/mouse), SP peptide group (administered dose of 175 µg/kg body weight/day, 350 µg/kg body weight/day, respectively), SIPI-D00 peptide group (administered dose of 175 µg/kg body weight/day, 350 µg/kg body weight/day), and dexamethasone group (administered dose of 2 mg/kg body weight/day).
OVA for sensitization was dissolved in sterile PBS solution at a final concentration of 0.2 mg/mL, then an equal volume of aluminum hydroxide adjuvant was added. After shaking for 30 minutes, each mouse was intraperitoneally injected with 0.2 mL (20 µg OVA per mouse).
2% OVA solution was prepared in sterile PBS. The 2% OVA was nebulized with a nebulizer, and the mice were placed in the nebulizer inhalation box for 30 minutes per day.
According to the dosage, SP peptide and SIPI-D00 were dissolved in normal saline respectively, and administered by subcutaneous administration on the back according to the body weight of the animals.
(§2) Mice in the model group, SP peptide group, SIPI-D00 peptide group and dexamethasone group were sensitized by intraperitoneal injection of OVA (20 µg OVA/mice) on day 0, 7, and 14, and challenged by aerosol administration of OVA (once a day for 5 consecutive days) on day 21-25 to construct asthmatic model animals. Mice in the model group were given normal saline on days 21-28; mice in different doses of SP peptide group and SIPI-D00 peptide group were injected subcutaneously with different doses of SP and SIPI-D00 on days 19-28; mice in dexamethasone group were injected intraperitoneally with 2 mg/kg/day dexamethasone on days 21-28. At the same time, 10 mice in the blank control group were fed normally from day 0 to day 28 without any treatment, and were given normal saline as a blank control.
After 28 days, blood was collected from the inner canthus of the mouse, and the serum was collected, and the IgE level in the serum was measured with an ELISA kit. […]
(§3) At the same time, 10 mice in the blank control group were fed normally from day 0 to day 28 without any treatment, and were given normal saline as a blank control.

[3] = system: OVA-induced asthma model mice; assay: Lung function (inspiratory airway resistance, lung compliance) in OVA-induced allergic asthma model mice; format: in vivo, BALB/c mice; settings: for Inspiratory airway resistance / Lung compliance: 2 mg/kg/day i.p., n=10
Protocol: The second batch: mice were divided into groups, 10 mice in each group, namely: blank control group (normal saline), model group (OVA, dose of 20 ug/mouse), SP peptide group (administered dose of 87.5 µg/kg body weight/ day, 175 µg/kg body weight/day, 350 µg/kg body weight/day, respectively), SIPI-D00 peptide group (administered dose of 87.5 µg/kg body weight/day, 175 µg/kg body weight/day, 350 µg/kg body weight/day), and Dexamethasone group (administered dose of 2 mg/kg body weight/day).
as §2
On the 28th day, the mice were anesthetized with tracheal intubation and jugular vein intubation, and the inspiratory airway resistance and lung compliance were measured in each group of animals. Each animal was given fold increasing amounts of methacholine via the jugular vein: 0.025 mg/kg, 0.05 mg/kg, 0.1 mg/kg, 0.2 mg/kg. After each dose was given, the lung compliance curve was recorded continuously for 5 minutes, and the inspiratory airway resistance and lung compliance were calculated. […]
as §3

[4] = system: OVA-induced asthma model mice; assay: Lung pathology (H&E) of OVA-induced asthma model mice; format: in vivo, BALB/c mice; settings: after 28 days
Protocol: as §1, §2
After 28 days, the mouse lung tissue was taken out, fixed in 4% formaldehyde, embedded in paraffin, sectioned, and stained with H&E for pathological observation.
as §1, with “ug/mice), and” for “ug/mouse),”, “SIPI-G5” for “SIPI-D00”, “weight/day),” for “weight/day), and”
as §3

[5] = Stability of each 7-peptide compound in rat whole blood; format: in vitro ADME; settings: for stability in whole blood: compared with SP peptide; for recovery: rat whole blood, 37° C., 1000 ng/mL, read-out: Recovery rate (%) M±SD
Protocol: Preparation of the test product: SP and SIPI-D00 were dissolved and diluted with an appropriate amount of 50% acetonitrile water containing 0.1% formic acid to obtain a working solution with a concentration of 200 µg/mL.
• 1) Fresh rat whole blood was added to the EP tube, and shaken gently to mix well; • 2) The EP tube was pre-incubated in a 37° C. water bath for 5 minutes; • 3) Each compound was added to start the reaction and continued to incubate at 37° C.; • 4) 50 µL sample was taken from the sample tube at 0, 2 min, 5 min, 10 min, 30 min, and 60 min, respectively, into the stop tube, 50 µL of ice-cold 7% perchloric acid was added, and shaken to stop the reaction; • 5) Sample was centrifuged at 13000 r/min for 10 min, 75 µL supernatant was aspirated, 60 µL1.25% ammonia water was added and mixed well. After filtered with […] microporous membrane, 20 µL sample was taken for LC-MS/MS analysis.

[6] = Plasma drug concentrations and pharmacokinetics after a single subcutaneous injection of SP peptide or SIPI-D00 peptide in SD rats; format: in vivo
Protocol: Route: Single back subcutaneous injection;
Dosage of the drug: SP peptide and SIPI-D00 peptide were prepared into 3.33 mg/mL solution with normal saline, the dosage of SP peptide by back subcutaneous injection was 10 mg/kg body weight, and the dosage of SIPI-D00 peptide by back subcutaneous injection was 5 mg/kg body weight. […]

[7] = system: ConA-stimulated mouse splenocytes; assay: Secretion of IL-4 from mouse splenocytes stimulated by ConA (ELISA); format: cell-based, BALB/C mice; settings: for IL-4 levels of polypeptides: ConA 5 µg/mL, 24 h
Protocol: (§4) Three BALB/C mice were sacrificed by cervical dislocation after anesthesia. Then mice were immersed in 75% ethanol for 5 minutes. After dissection and spleen extraction, spleen lymphocytes were prepared. […] Different concentrations of test substances were added to each well, and duplicate wells were set for each concentration, and the final concentration of ConA was 5 µg/mL. The plate was incubated in a 37° C. 5% CO2 incubator for 24 h, the drug-containing cell suspension was aspirated from each well, then centrifuged at 200 g for 15 min at 4° C. The supernatant was taken, and mouse IL-4 Elisa kit was used to detect IL- 4 content.
as §4, with “each concentration was” for “duplicate wells were”, “up as triple wells,” for “for each concentration,”, “kit (mouse IL-4 Elisa kit)” for “kit”

recovery ([5]; incubation time 0 min): 100%
recovery ([5]; incubation time 2 min): 94.6 ± 8.5%
recovery ([5]; incubation time 5 min): 87.3 ± 5.6%
recovery ([5]; incubation time 10 min): 87.2 ± 5.9%
recovery ([5]; incubation time 30 min): 77.7 ± 8.1%
recovery ([5]; incubation time 60 min): 77.1 ± 2.3%
Compound: CC(=O)N[C@H]1C(OC[C@H](NC(=O)[C@@H](NC(=O)[C@H](Cc2ccc(O)cc2)NC(=O)[C@@H](NC(=O)[C@H](CCC(N)=O)NC(=O)CN)[C@@H](C)OC2O[C@H](CO)[C@@H](O)[C@H](O)[C@H]2NC(C)=O)[C@@H](C)OC2O[C@H](CO)[C@@H](O)[C@H](O)[C@H]2NC(C)=O)C(=O)NCC(=O)O)O[C@H](CO)[C@@H](O)[C@@H]1O (stereo partly shown) [SIPI-G4, GQT(Glc)YT(Glc)S(Glc)G] (H-GQT(X1)YT(X1)S(X1)G-OH)
stability in whole blood [5]: significantly higher than that of SP peptide

recovery ([5]; incubation time 0 min): 100%
recovery ([5]; incubation time 2 min): 86.1 ± 1.8%
recovery ([5]; incubation time 5 min): 81.3 ± 8.3%
recovery ([5]; incubation time 10 min): 73.4 ± 2.6%
recovery ([5]; incubation time 30 min): 59.7 ± 8.8%
recovery ([5]; incubation time 60 min): 51.1 ± 4.9%
Compound: CC(=O)N[C@H]1C(O[C@H](C)[C@H](NC(=O)[C@H](CCC(N)=O)NC(=O)CN)C(=O)N[C@@H](Cc2ccc(O)cc2)C(=O)N[C@H](C(=O)N[C@@H](CO)C(=O)NCC(=O)O)[C@@H](C)O)O[C@H](CO)[C@@H](O)[C@@H]1O (stereo partly shown) [SIPI-G6, GQT(Glc)YTSG] (H-GQT(X1)YTSG-OH)
stability in whole blood [5]: significantly higher than that of SP peptide

Second part, the compound before the results:

Compound: CCCC1O[C@@H]2C[C@H]3[C@@H]4CCC5=CC(=O)C=C[C@]5(C)[C@H]4[C@@H](O)C[C@]3(C)[C@]2(C(=O)CO)O1 (stereo partly shown) [Budesonide, budesonide]
200 ms pulmonary ventilation [1]: 77.17 ± 11.20 mL
Percentage of 200 ms pulmonary ventilation (%) [1]: 465.8±77.8 %

Compound: C[C@@H]1C[C@H]2[C@@H]3CCC4=CC(=O)C=C[C@]4(C)[C@@]3(F)[C@@H](O)C[C@]2(C)[C@@]1(O)C(=O)COP(=O)([O-])[O-].[Na+].[Na+] [Dexamethasone, dexamethasone sodium phosphate, reference compound]
Serum IgE level (OD450) ([2]; 2 mg/kg/day intraperitoneal, days 21-28, n=10): 0.285 ± 0.041 OD450
Inspiratory airway resistance ([3]; methacholine 0 mg/kg): 1.00±0.00
Lung compliance ([3]; methacholine 0 mg/kg): 1.00±0.00
Inspiratory airway resistance ([3]; methacholine 0.025 mg/kg): 1.06±0.08
Lung compliance ([3]; methacholine 0.025 mg/kg): 0.97±0.10
Inspiratory airway resistance ([3]; methacholine 0.05 mg/kg): 1.15±0.14
Lung compliance ([3]; methacholine 0.05 mg/kg): 0.89±0.14
Inspiratory airway resistance ([3]; methacholine 0.1 mg/kg): 1.20±0.21
Lung compliance ([3]; methacholine 0.1 mg/kg): 0.87±0.22
Inspiratory airway resistance ([3]; methacholine 0.2 mg/kg): 1.23±0.17
Lung compliance ([3]; methacholine 0.2 mg/kg): 0.83±0.14
inspiratory phase resistance (in words) ([3]; compared with the model group): significantly reduced
lung compliance (in words) ([3]; compared with the model group): significantly increased
lung pathology, H&E ([4]; positive control group (dexamethasone 2 mg/kg body weight/day)): a small amount of inflammatory cell infiltration in the lungs, but the alveolar cavity is seriously damaged

Compound: CC(=O)N[C@H]1C(O[C@H](C)[C@H](NC(=O)[C@H](Cc2ccc(O)cc2)NC(=O)[C@@H](NC(=O)[C@H](CCC(N)=O)NC(=O)CN)[C@@H](C)OC2O[C@H](CO)[C@@H](O)[C@H](O)[C@H]2NC(C)=O)C(=O)N[C@@H](CO)C(=O)NCC(=O)O)O[C@H](CO)[C@@H](O)[C@@H]1O (stereo partly shown) [SIPI-G8, GQT(Glc)YT(Glc)SG] (H-GQT(X1)YT(X1)SG-OH)
stability in whole blood [5]: significantly higher than that of SP peptide
recovery ([5]; incubation time 0 min): 100%
recovery ([5]; incubation time 2 min): 83.6 ± 8.1%
recovery ([5]; incubation time 5 min): 83.2 ± 6.1%
recovery ([5]; incubation time 10 min): 80.7 ± 2.3%
recovery ([5]; incubation time 30 min): 71.2 ± 6.3%
recovery ([5]; incubation time 60 min): 58.6 ± 4.8%

Compound: H-GQTYTSG-OH [SP, GQTYTSG, reference compound]
Plasma concentration ([6]; SP peptide 10 mg/kg s.c., SD rats, time 0 min, parallels 1-4): 0 ng/mL
level at 0.5 min ([6]; male, SD, rat, plasma, sc, 10 mg/kg, SP peptide 10 mg/kg s.c., SD rats, time 0.5 min, parallels 1-4, read-out: Plasma concentration): 74.2 ng/mL
AUC(0-inf) ([6]; rat, in vivo, sc, 10 mg/kg): 11.9 ng·h/mL
AUC(0-t) ([6]; rat, in vivo, sc, 10 mg/kg): 11.9 ng·h/mL
Cmax ([6]; rat, in vivo, sc, 10 mg/kg): 210 ± 21.6 ng/mL
half-life ([6]; rat, in vivo, sc, 10 mg/kg): 8.65 ± 1.79 min
Serum IgE level (OD450) ([2]; 175 ug/kg/day subcutaneous, days 19-28, n=10): 0.634 ± 0.078 OD450 and 0.634 + OD450
Serum IgE level (OD450) ([2]; 350 ug/kg/day subcutaneous, days 19-28, n=10): 0.595 ± 0.041 OD450 and 0.595 + OD450
recovery ([5]; incubation time 0 min): 100%
recovery ([5]; incubation time 2 min): 64.1 ± 7.6%
recovery ([5]; incubation time 5 min): 41.3 ± 6.8%
recovery ([5]; incubation time 10 min): 28.5 ± 0.9%
recovery ([5]; incubation time 30 min): 4.93 ± 0.7%
recovery ([5]; incubation time 60 min): 1.67 ± 0.5%
Inhibitory rate of polypeptide on IL-4 secretion ([7]; peptide concentration 1 µg/mL): 33.90%
IL-4 levels of polypeptides ([7]; peptide concentration 1 µg/mL): 14.28 ± 0.51 pg/mL
Inhibitory rate of polypeptide on IL-4 secretion ([7]; peptide concentration 3 µg/mL): 42.51%
IL-4 levels of polypeptides ([7]; peptide concentration 3 µg/mL): 12.42 ± 0.34 pg/mL
Inhibitory rate of polypeptide on IL-4 secretion ([7]; peptide concentration 10 µg/mL): 50.21%
IL-4 levels of polypeptides ([7]; peptide concentration 10 µg/mL): 10.76 ± 2.55 pg/mL
Inhibitory rate of polypeptide on IL-4 secretion ([7]; peptide concentration 30 µg/mL): 52.15%
IL-4 levels of polypeptides ([7]; peptide concentration 30 µg/mL): 10.34 ± 0.27 pg/mL
lung pathology, H&E ([4]; high-dose group (350 µg/kg body weight/day)): some inflammatory cells are found in the airway mucosa
lung pathology, H&E ([4]; low-dose group (175 µg/kg body weight/day)): some inflammatory cells are found in the airway mucosa
